# Measurements: patent publication US20090035844A1, “Mechanical cell wounder device and related method” (HONG KONG BAPTIST UNIVERSITY, priority 2007, published 2009)
# Test system: IEC-6 cells
# Test: Wounding assay: migration of IEC-6 cells after mechanical wounding (96-well plate)
# Format: cell-based, rat
# Protocol: After incubation in 10% FBS supplemented DMEM for 24 hours, the cells are starved in serum-free medium for another 24 hours. […] A cell denuded area is created by scratching the cell monolayer with the eight-channel mechanical wounder fitted with p-10 pipette tips (Axygen, T-300). To ensure even contact between the tips and the bottom of the well, the pins are calibrated by adjusting the hex screw with a hex wrench. With the help of the guiding-bar, the wounder is fixed onto the 96-well plate where each channel (pipette tip) is positioned at the same level in the eight wells of the same column. During wounding, the cell monolayer is scratched by moving the wounder from the left inner edge to the right inner edge of the wells where a sharp wound is formed along the diameter of each well. The wounding procedure is then repeated for all columns of a 96-well plate.
# Photomicrographs of wounds are taken at time zero (501, 503, 505), 16 hours (511, 513, 515) and 24 hours (521, 523, 525) after wounding. Images at time zero are taken to record the initial width of the wounds and the recovery of the wounded monolayers due to cell migration towards the denuded area can be evaluated at 16 and 24 hours. The images are captured using an inverted phase-contract microscope such as a TMS Nikon with 4× objective, and the width of wound can quantified by the software such as Motic image plus 2.0 software of Motic Instruments. The migration of cells towards the wounds is expressed as a percentage of wound closure where % of wound closure=[(Wt=0−Wt=16 or 24)/Wt=0]×100% where Wt=0 is the width of wound measured immediately after scratching and Wt=16 or 24 is the width of wound measured 16 hours or 24 hours after scratching.
compound,measurement,setting,value
"NCCC[C@](N)(C(=O)O)C(F)F [DFMO, alpha-difluoromethylornithine]",percentage of wound closure,"16 hours after wounding, 5 mM DFMO in serum-free medium (control about 60%)",33%
same,percentage of wound closure,"24 hours after wounding, 5 mM DFMO in serum-free medium (control 76%)",around 50%
"epithelial growth factor (NSDSECPLSHDGYCLHDGVCMYIEALDKYACNCVVGYIGERCQYRDLKWWELR; Epidermal growth factor; UniProt P01133 971-1023, looked up) [EGF, cell migration enhancer, used as the inducer of cell migration]",percentage of wound closure,"24 hours after wounding, 20 ng/ml EGF in serum-free medium (control 76%)",~100%
